Like-named read-outs stand apart in the source and are kept apart here.

The test system of series [1] is Peronospora parasitica. The series is described as follows: Example A: in vivo test on Peronospora parasitica (downy mildew on white cabbage). The note with it: Hyaloperonospora parasitica, 120 h, cabbage plants sprayed 24 hours before inoculation, scored after 5 days, read-out: % Wirkungsgrad. A digest of the protocol:
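Cabbage plants (Eminence) at cotyledon stage sprayed with aqueous compound suspension (acetone/Tween/DMSO, diluted with water), then inoculated 24 h later with P. parasitica spores at 50,000 spores/ml. After 5 days in moist atmosphere at ca. 20 °C, disease scored against untreated sprayed controls.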

For series [2], the system named is Botrytis cinerea. The series is described as follows: Example B: in vivo test on Botrytis cinerea (grey mould on cucumbers). The conditions noted are these: cucumber plants sprayed 24 hours before inoculation, scored after 5-7 days, read-out: % Wirkungsgrad. On the procedure: In Vivo Test on Botrytis Cinerea (Grey Mould on Cucumbers) An aqueous suspension of the active substance was prepared by homogenization of a mixture of acetone/Tween/dimethyl sulphoxide and subsequent dilution with water to the desired concentration. Cucumber plants (variety: Vert petit de Paris) are sown in cultivation dishes on a peat-pozzolanic earth substrate (50/50) at 18-20° C. and sprayed at the cotyledon stage Z11 with the aqueous suspension described above. As a control, plants are sprayed with an aqueous solution with no active substance. […] The spores are derived from a 15 day-old culture which are suspended in the following nutrient solution: • 20 g/l gelatine • 50 g/l D-fructose • 2 g/l NH4NO3 • 1 g/l KH2PO4 The inoculated cucumber plants are kept for 5-7 days in a climatic chamber at […] After 5-7 days they are scored in comparison with the control plants.

The test system of series [3] is Sphaerotheca fuliginea. The series is described as follows: Example D: in vivo test on Sphaerotheca fuliginea (powdery mildew on cucumber). The conditions noted are these: Podosphaera fuliginea, 288 h, cucumber plants sprayed 24 hours before inoculation, scored after 12 days, read-out: % Wirkungsgrad. The essentials:
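Cucumber plants at cotyledon stage Z10 were sprayed with the compound suspended in acetone/Tween/DMSO diluted with water. After 24 hours they were inoculated with Sphaerotheca fuliginea spores (100,000/ml) and incubated at ca. 20/25° C. and 60/70% RH. Disease was scored after 12 days against untreated sprayed controls.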

The test system of series [4] is Puccinia recondita. The series is described as follows: Example F: in vivo test on Puccinia recondita (wheat brown rust). The note with it: 240 h, wheat plants sprayed 24 hours before inoculation, scored after 10 days, read-out: % Wirkungsgrad. On the procedure: In Vivo Test on Puccinia Recondita (Wheat Brown Rust) An aqueous suspension of the active substance was prepared by homogenization of a mixture of acetone/Tween/dimethyl sulphoxide and subsequent dilution with water to the desired concentration. Wheat plants (variety: Scipion) are sown in cultivation dishes on a peat-pozzolanic earth substrate (50/50) at 12° C. and sprayed at the first-leaf stage (10 cm size) with the aqueous suspension described above. As a control, plants are sprayed with an aqueous solution with no active substance. After 24 hours the plants are inoculated by spraying with an aqueous suspension of Puccinia recondita spores (100,000 spores per ml). The spores are derived from a 10 day-old infected wheat crop and are suspended in water with 2.5 ml/l Tween. […] After 10 days they are scored in comparison with the control plants.

For series [5], the system named is Mycosphaerella graminicola. The series is described as follows: Example G: in vivo test on Mycosphaerella graminicola (wheat leaf blotch disease). The note with it: Zymoseptoria tritici, wheat plants sprayed 24 hours before inoculation, scored after 21 to 28 days, read-out: % Wirkungsgrad. The procedure:
In Vivo Test on Mycosphaerella Graminicola (Wheat Leaf Blotch Disease) An aqueous suspension of the active substance was prepared by homogenization of a mixture of acetone/Tween/dimethyl sulphoxide and subsequent dilution with water to the desired concentration. Wheat plants (variety: Scipion) are sown in cultivation dishes on a peat-pozzolanic earth substrate (50/50) at 12° C. and sprayed at the first-leaf stage (10 cm size) with the aqueous suspension described above. As a control, plants are sprayed with an aqueous solution with no active substance. After 24 hours the plants are inoculated by spraying with an aqueous suspension of Mycosphaerella graminicola spores (500,000 spores per ml). The spores are derived from a 7 day-old culture. […] After 21 to 28 days they are scored in comparison with the control plants.

Series [6] has as its system Fusarium proliferatum. Kind of series: Example I: production of fumonisin FB1 by Fusarium proliferatum (microtitre plates). The note with it: 120 h. It is filed as cell-based.
Series [7] is described as follows: physchem.
Series [8] deals with Fusarium graminearum. The series is described as follows: microbe, parasite or virus in culture. In kind it is cell-based.
The test system of series [9] is Aspergillus parasiticus. Kind of series: microbe, parasite or virus in culture. In kind it is cell-based. The note with it: 168 h.
Series [10] has as its system Plasmopara viticola. Kind of series: Example N: in vivo test on Plasmopara viticola (downy mildew, vine/protective). The note with it: 144 h, vine, protective, assessment 6 days after inoculation, read-out: % Wirkungsgrad. The essentials:
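Protective test: young vine plants were sprayed with active substance diluted in water from a solvent/alkylaryl polyglycol ether emulsifier concentrate at the stated dosage, then inoculated with P. viticola. Plants were moistened and kept 1 day in an incubation cabin, and assessed 6 days after inoculation.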

Series [11] relates to Venturia inaequalis. The series is described as follows: Example O: in vivo test on Venturia inaequalis (apple scab/protective). The note with it: 240 h, protective, assessment 10 days after inoculation, read-out: % Wirkungsgrad. The essentials: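 Protective test: active substance mixed with solvent and alkylaryl polyglycol ether emulsifier, diluted with water, and sprayed on young plants at the stated dosage before Venturia inaequalis inoculation. Scab assessed 10 days after inoculation.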

Series [12] relates to Botrytis cinerea. Kind of series: Example P: in vivo test on Botrytis cinerea (gray mould on bean/protective). The conditions noted are these: 48 h, bean, protective, 250 ppm active substance, assessed 2 days after inoculation, read-out: % Wirkungsgrad (activity level). A digest of the protocol: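 Protective test: young bean plants sprayed with the active substance preparation (emulsifier-based concentrate diluted in water) at the stated dosage. Once dry, each leaf received 2 agar pieces bearing Botrytis cinerea. Infection blotch size assessed 2 days after inoculation.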

Series [13] deals with Pyricularia oryzae. Kind of series: whole plant or invertebrate. The note with it: 120 h, read-out: % Activity level. It is filed as in vivo.
In series [14] the test system is Cochliobolus miyabeanus. Kind of series: Example X: in vivo test on Cochliobolus miyabeanus (brown spot disease, rice/protective). The conditions noted are these: Bipolaris oryzae, 96 h, read-out: % Activity level.
The test system of series [15] is Sphaerotheca fuliginea. The series is described as follows: Example L: in vivo test on Sphaerotheca fuliginea (powdery mildew on cucumber/protective). The note with it: Podosphaera fuliginea, 168 h, cucumber, protective, assessment 7 days after inoculation, read-out: % Wirkungsgrad. A digest of the protocol: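 Young cucumber plants sprayed at stated dosage with compound in DMF/alkylaryl polyglycol ether emulsifier diluted in water; inoculated with S. fuliginea spores one day later. Kept in greenhouse at 70% relative humidity, 23° C; protective activity assessed 7 days after inoculation.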

The subject of series [16] is Rhizoctonia solani. The series is described as follows: Example W: in vivo test on Rhizoctonia solani (sheath blight in rice/protective). The note with it: 96 h, rice, protective, 250 ppm active substance, assessed 4 days after inoculation, read-out: % Activity level. On the procedure: Solvent: 28.5 parts by weight acetone Emulsifier: 1.5 parts by weight alkylaryl polyglycol ethers For the preparation of a suitable active substance preparation, 1 part by weight of active substance is mixed with the stated quantities of solvent and emulsifier and the concentrate is diluted to the desired concentration with water. For the testing for protective activity, young rice plants are sprayed with the active substance preparation at the stated application dosage. One day after the treatment, the plants are inoculated with hyphae of Rhizoctonia solani. […] 4 days after the inoculation, the assessment takes place.

Series [17] has as its system Alternaria solani. Kind of series: Example M: in vivo test on Alternaria solani (leaf blotch disease/tomato/protective). The conditions noted are these: 168 h, tomato, protective, 500 ppm active substance, assessed 7 days after inoculation, read-out: % Wirkungsgrad (activity level). A digest of the protocol: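 Protective test: young tomato plants sprayed with active substance (in DMF with alkylaryl polyglycol ether emulsifier, diluted in water) at the stated dosage, then inoculated with Alternaria solani. Disease assessed 7 days after inoculation.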

Setting [18] is: Fusarium proliferatum growth, OD 620, 5 days, read-out: % Inhibition des Pilzwachstums bei 50 μM.
The mark [19] stands for this setting: Fusarium proliferatum, 5 days at 20° C., HPLC-MS/MS, read-out: % Inhibition der FB1 produktion bei 50 μM.
The mark [20] stands for this setting: LogPA (logP of the stated pure compound or, in a mixture, of the main isomer, 1-substituted 3-aryl-1H-pyrazole).
Where [21] appears, read: 72 h, read-out: % Inhibition des Pilzwachstums bei 50 μM.
Where [22] appears, read: 168 h, read-out: % Inhibition der DON/AcDON produktion bei 50 μM.

For “N-Benzyl-4-[3-(4-fluorophenyl)-1-isopropyl-1H-pyrazol-4-yl]pyrimidin-2-amine [[I-f-1]]”, the “logP (pH 2.7)” value (pH 2.7) worked out at 3.31.
The same measure, in the same setting: to “4-[3-(4-fluorophenyl)-1-isobutyl-1H-pyrazol-4-yl]-N-isopropylpyrimidin-2-amine [[I-h-1]]” belongs 1.81.
As for `CC(C)n1cc(-c2ccnc3ccccc23)c(-c2ccc(F)cc2)n1` [Compound 44], the pest or weed control at 500 ppm came out at 78% in series [1]; 71% in series [2]; 98% in series [3]; 71% in series [4]; 81% in [5]. Also, the inhibition at 50 µM in series [6] (setting [18]) is 33%; in series [6] (setting [19]), 100%. Besides, the chromatographic logP in series [7] (setting [20]) was found to be 2.24.
As to `Cc1cc(-c2c(-c3ccncc3)cnn2C2CCCCO2)ccc1F` (stereo not shown) [[X-7], 4-[5-(4-fluoro-3-methylphenyl)-1-(tetrahydro-2H-pyran-2-yl)-1H-pyrazol-4-yl]pyrid], the “LogP (pH 2.3)” value (pH 2.3) was 1.47.
Turning to `COCC(=O)Nc1cc(-c2cn(C(C)C)nc2-c2ccc(F)cc2)ccn1` [Compound 40], the pest or weed control at 500 ppm was 98% in [1]; 100% in series [2]; 100% in series [3]; 86% in series [4]; 81% in series [5]. Besides, the inhibition at 50 µM in series [6] (setting [18]) was determined as 98%; in series [6] (setting [19]), 100%; in [8] (setting [21]), 100%; in [8] (setting [22]), 100%; in series [9] (50 μM, 7 days at 20° C., read-out: Inhibition der Aflatoxin produktion bei 50 μM), 99%; in series [9] (read-out: % Inhibition des Pilzwachstums bei 50 μM) it was 88%. Besides, the results for the pest or weed control at 100 ppm in [10] and in series [11] were 72% and 97%, respectively. For the same compound, the pest or weed control at 250 ppm came to 100% in series [12], 95% in [13] and 85% in [14]. Further, in series [7] (setting [20]), the chromatographic logP came out at 2.59.
Turning to “Mixture of 4-bromo-3-(4-fluorophenyl)-1-isopropyl-1H-pyrazole and 4-bromo-5-(4-fluoro-phenyl)-1-isopropyl-1H-pyrazole [[VI-1]]”, for the setting “pH 2.7”, the “logP (pH 2.7)” value was determined as 3.96 and the “logP (pH 2.7), minor isomer” value amounted to 3.68.
Consider `O=C(Nc1cc(-c2cn(CCCl)nc2-c2ccc(F)cc2)ccn1)C1CC1` [Compound 221], for which the inhibition at 50 µM in series [6] (setting [18]) was determined as 99%; in [6] (setting [19]), 100%; in series [8] (setting [21]), 100%; in [8] (setting [22]) it was 100%. The pest or weed control at 500 ppm in series [15] stood at 100%. The pest or weed control at 100 ppm in series [11] was found to be 91%. The pest or weed control at 250 ppm in series [12] turned out to be 100%; in [13], 92%; in series [16], 100%; in series [14], 80%. The compound also came in with a chromatographic logP in [7] (LogPA) of 2.1.
Take `Fc1ccc(-c2nn(CC3CC3)cc2-c2ccncc2)cc1` [Compound 126]: the pest or weed control at 500 ppm in series [1] is 89%; in [3] it was 85%; in [4], 75%; in [15], 95%; in series [17], 95%. For the same compound, the pest or weed control at 100 ppm in series [10] stood at 81%; in [11], 98%. In series [12], the pest or weed control at 250 ppm was determined as 100%. Besides, the chromatographic logP in series [7] (setting [20]) was determined as 1.33.
As for `C#CCn1nc(-c2ccc(F)cc2)c(-c2ccncc2)c1C` [Compound 171], the pest or weed control at 500 ppm in series [1] turned out to be 91%; in series [2], 71%; in series [3] it was 100%; in series [4], 94%; in [5] it was 93%; in series [15] it was 100%. The pest or weed control at 500 ppm in series [17] was 95%. The pest or weed control at 250 ppm in series [12] came out at 84%. This compound also came in with a chromatographic logP in [7] (LogPA) of 2.51.
For the compound `NC(=O)c1cc(-c2cn(C3CCCCO3)nc2-c2ccc(F)cc2)ccn1` (stereo not shown) [Compound 93], the pest or weed control at 500 ppm in series [4] was determined as 83%. The chromatographic logP in series [7] (setting [20]) came out at 2.46.
